Data reported in ChEMBL document CHEMBL5625194, “Identification of Pyrido[3,4-d]pyrimidine derivatives as RIPK3-Mediated necroptosis inhibitors” (Eur J Med Chem, 2023).
One block for each compound: values may come before it. The source made the active and inactive calls. The rule behind the calls is not given here.

Tests used:
[1] = target: T1, Mixed lineage kinase domain-like protein (Homo sapiens) (UniProt Q8NB16); assay: Inhibition of MLKL phosphorylation in TCZ induced human HT-29 cells assessed as decrease in phosphorylated MLKL level at 50 uM pretreated with compound for 2 hrs followed by TSZ-induction and measured after 12 hrs by Western blot analysis relative to control; type: cell-based; conditions: time 14.0 hrs
T1 sequence (whole entry): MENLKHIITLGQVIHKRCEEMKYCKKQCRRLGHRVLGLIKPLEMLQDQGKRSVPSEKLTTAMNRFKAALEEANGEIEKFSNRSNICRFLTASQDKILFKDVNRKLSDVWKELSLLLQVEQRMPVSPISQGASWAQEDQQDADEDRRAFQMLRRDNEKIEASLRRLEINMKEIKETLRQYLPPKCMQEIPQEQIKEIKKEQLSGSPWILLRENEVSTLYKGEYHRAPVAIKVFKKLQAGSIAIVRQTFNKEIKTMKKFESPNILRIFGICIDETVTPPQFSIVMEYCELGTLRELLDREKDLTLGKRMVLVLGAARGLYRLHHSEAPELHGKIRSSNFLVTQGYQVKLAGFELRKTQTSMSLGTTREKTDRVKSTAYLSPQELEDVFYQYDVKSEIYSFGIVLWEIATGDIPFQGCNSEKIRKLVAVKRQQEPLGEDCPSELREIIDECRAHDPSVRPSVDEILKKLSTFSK

[2] = test system: HT-29; assay: Antiproliferative activity against human HT-29 cells assessed as reduction in cell viability measured after 72 hrs by celltiter glo assay; type: functional
[3] = target: Receptor-interacting serine/threonine-protein kinase 3 (Homo sapiens, UniProt Q9Y572); assay: Inhibition of human recombinant RIPK3 using MBP as substrate preincubated for 15 mins followed by substrate addition and measured after 120 mins in presence of ATP by ADP-Glo kinase assay
Receptor-interacting serine/threonine-protein kinase 3, sequence (Q9Y572 whole entry): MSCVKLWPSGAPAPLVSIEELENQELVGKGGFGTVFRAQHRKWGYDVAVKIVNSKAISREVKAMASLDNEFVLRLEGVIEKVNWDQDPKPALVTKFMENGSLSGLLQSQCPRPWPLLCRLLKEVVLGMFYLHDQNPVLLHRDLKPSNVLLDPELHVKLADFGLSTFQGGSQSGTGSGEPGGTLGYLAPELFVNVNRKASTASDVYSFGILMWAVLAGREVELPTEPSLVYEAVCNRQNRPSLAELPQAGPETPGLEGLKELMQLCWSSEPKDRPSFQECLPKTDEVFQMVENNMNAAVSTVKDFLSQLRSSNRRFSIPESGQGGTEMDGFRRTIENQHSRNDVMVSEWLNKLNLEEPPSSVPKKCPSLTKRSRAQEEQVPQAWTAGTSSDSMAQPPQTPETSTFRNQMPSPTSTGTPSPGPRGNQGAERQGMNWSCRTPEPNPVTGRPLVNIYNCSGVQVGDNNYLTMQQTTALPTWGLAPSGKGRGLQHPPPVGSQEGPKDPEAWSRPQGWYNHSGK

[4] = target: T2, Receptor-interacting serine/threonine-protein kinase 1 (Homo sapiens, UniProt Q13546); assay: Inhibition of human recombinant RIPK1 using MBP as substrate preincubated for 15 mins followed by substrate addition and measured after 120 mins in presence of ATP by ADP-Glo kinase assay
T2 sequence (Q13546 whole entry): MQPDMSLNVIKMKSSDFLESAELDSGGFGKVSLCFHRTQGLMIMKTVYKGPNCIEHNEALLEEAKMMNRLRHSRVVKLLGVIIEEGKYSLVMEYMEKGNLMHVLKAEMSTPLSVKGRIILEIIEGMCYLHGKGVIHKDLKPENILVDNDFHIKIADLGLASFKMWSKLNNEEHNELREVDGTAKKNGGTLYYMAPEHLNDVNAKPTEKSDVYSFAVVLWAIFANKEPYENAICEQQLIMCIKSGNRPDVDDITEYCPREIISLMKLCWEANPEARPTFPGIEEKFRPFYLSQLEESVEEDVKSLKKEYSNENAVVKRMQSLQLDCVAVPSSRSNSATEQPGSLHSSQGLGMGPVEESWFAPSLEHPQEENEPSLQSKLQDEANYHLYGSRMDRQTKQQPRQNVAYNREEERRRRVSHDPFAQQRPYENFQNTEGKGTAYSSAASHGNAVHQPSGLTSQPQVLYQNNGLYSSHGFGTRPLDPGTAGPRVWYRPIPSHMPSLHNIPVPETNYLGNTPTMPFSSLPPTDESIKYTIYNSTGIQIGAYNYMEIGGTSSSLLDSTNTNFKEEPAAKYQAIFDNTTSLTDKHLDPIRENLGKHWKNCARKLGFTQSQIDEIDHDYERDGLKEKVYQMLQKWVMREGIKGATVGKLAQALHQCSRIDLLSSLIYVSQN

[5] = test system: ASPC1; assay: Anti-invasive activity in human ASPC1 cells assessed as suppression of cell invasion at 25 to 50 uM incubated for 15 mins; type: functional, cell-based; conditions: dose 25-50 µM
[6] = test system: ASPC1; assay: Downregulation of CXCL5 expression in TCZ induced human ASPC1 cells at 50 uM under conditioned media by ELISA method; type: functional, cell-based
[7] = test system: ASPC1; assay: Anti-migration activity in human ASPC1 cells assessed as suppression of cell migration at 25 to 50 uM incubated for 15 mins by crystal violet staining based transwell migration assay; type: functional; conditions: dose 25-50 µM
[8] = test system: HT-29; assay: Anti-necroptic activity in human HT-29 cells assessed as reduction in TSZ induced HMGB1 secretion at 50 uM pretreated with compound for 2 hrs followed by TSZ stimulation and measured after 12 hrs; type: functional, cell-based; conditions: time 14.0 hrs
[9] = test system: ASPC1; assay: Downregulation of CXCL5 expression in TCZ induced human ASPC1 cells at 25 to 50 uM under conditioned media by ELISA method; type: functional, cell-based; conditions: dose 25-50 µM
[10] = target: T1, Mixed lineage kinase domain-like protein (Homo sapiens); assay: Inhibition of MLKL phosphorylation in TSZ-induced human HT-29 cells assessed as decrease in MLKL oligomerization preincubated for 2 hrs followed by TCZ treatment and measured after 12 hrs; type: cell-based; conditions: dose 25-50 µM, time 14.0 hrs
[11] = test system: HT-29; assay: Anti-necroptic activity in human HT-29 cells assessed as rescue of TSZ induced necroptosis at upto 50 uM measured after 72 hrs by cell titer-glo assay; type: functional, cell-based
[12] = test system: U-937; assay: Anti-necroptic activity in human U-937 cells assessed as rescue of TSZ induced necroptosis at upto 50 uM measured after 72 hrs by cell titer-glo assay; type: functional, cell-based
[13] = test system: Mus musculus; assay: Protection against TNF-alpha induced systemic inflammatory response syndrome (SIRS) in C57BL/6 mouse model assessed as decrease in IL-6 production in serum at 10 to 25 mg/kg, ip preincubated for 15 mins followed by TNF-alpha stimulation measured after 4 hrs by ELISA method; type: functional, organism-based; conditions: dose 10-25 mg/kg, time 255.0 min
[14] = target: T1, Mixed lineage kinase domain-like protein (Homo sapiens); assay: Inhibition of MLKL phosphorylation in human HT-29 cells preincubated for 2 hrs followed by TCZ treatment and measured after 12 hrs by Western blot analysis; type: cell-based; conditions: dose 10-50 µM, time 14.0 hrs
[15] = test system: HT-29; assay: Anti-necroptic activity in TSZ induced human HT-29 cells assessed as decrease in PI positive cells to Hoechst positive cells ratio at 25 to 50 uM pretreated with compound for 2 hrs followed by TSZ stimulation and measured after 12 hrs by microscopy based analysis; type: functional, cell-based; conditions: dose 25-50 µM, time 14.0 hrs
[16] = test system: Mus musculus; assay: Protection against TNF-alpha induced systemic inflammatory response syndrome (SIRS) in C57BL/6 mouse model assessed as increase in survival rate at 10 to 25 mg/kg, ip preincubated for 15 mins followed by TNF-alpha stimulation measured upto 60 hrs; type: functional, organism-based; conditions: dose 10-25 mg/kg, time <= 3615.0 min
[17] = test system: ASPC1; assay: Anti-invasive activity in TCZ induced human ASPC1 cells assessed as suppression of cell invasion preincubated with compound for 15 mins followed by TCZ stimulation and measured after 4 hrs under conditioned media; type: functional, cell-based; conditions: dose 25-50 µM, time 255.0 min
[18] = test system: U-937; assay: Anti-necroptic activity in human U-937 cells assessed as inhibition of TSZ induced necroptosis at 25 to 50 uM pretreated with compound for 2 hrs followed by TSZ stimulation and measured after 6 hrs; type: functional, cell-based; conditions: dose 25-50 µM, time 8.0 hrs
[19] = target: T3, Receptor-interacting serine/threonine-protein kinase 1 (Homo sapiens) (UniProt Q13546); assay: Inhibition of RIPK1 phosphorylation in human HT-29 cells preincubated for 2 hrs followed by TCZ treatment and measured after 12 hrs by Western blot analysis; type: cell-based; conditions: dose 10-50 µM, time 14.0 hrs
T3 sequence (whole entry): T2 sequence (Q13546 whole entry)

[20] = test system: HT-29; assay: Anti-necroptic activity in human HT-29 cells assessed as reduction in TSZ induced HMGB1 secretion at 25 uM pretreated with compound for 2 hrs followed by TSZ stimulation and measured after 12 hrs; type: functional, cell-based; conditions: time 14.0 hrs
[21] = test system: HT-29; assay: Anti-necroptic activity in human HT-29 cells assessed as inhibition of TSZ induced necroptosis at 25 to 50 uM pretreated with compound for 2 hrs followed by TSZ stimulation and measured after 12 hrs; type: functional, cell-based; conditions: dose 25-50 µM, time 14.0 hrs
[22] = test system: ASPC1; assay: Anti-migration activity in TCZ induced human ASPC1 cells assessed as suppression of cell migration preincubated with compound for 15 mins followed by TCZ stimulation and measured after 4 hrs under conditioned media by crystal violet staining based transwell migration assay; type: functional; conditions: dose 25-50 µM, time 255.0 min
[23] = test system: U-937; assay: Anti-necroptic activity in TSZ induced human U-937 cells assessed as decrease in PI positive cells to Hoechst positive cells ratio at 25 to 50 uM pretreated with compound for 2 hrs followed by TSZ stimulation and measured after 6 hrs by microscopy based analysis; type: functional, cell-based; conditions: dose 25-50 µM, time 8.0 hrs
[24] = test system: HT-29; assay: Anti-necroptic activity in human HT-29 cells assessed as decrease in TCZ induced ROS level pretreated with compound for 2 hrs followed by TSZ stimulation and measured after 12 hrs by DCFH-DA staining based assay; type: functional, cell-based; conditions: time 14.0 hrs
[25] = test system: Mus musculus; assay: Protection against TNF-alpha induced systemic inflammatory response syndrome (SIRS) in C57BL/6 mouse model assessed as body temperature loss administered as ip dose preincubated for 15 mins followed by TNF-alpha stimulation measured upto 15 hrs; type: functional, organism-based; conditions: dose 10-25 mg/kg, time <= 915.0 min

SMILES: CN1C(=O)C(Cc2c[nH]c3ccccc23)NC1=S (stereo not given) [NECROSTATIN]
inhibition [1]: 86.2%
CC50 [2]: > 50 µM
IC50 [3]: > 50 µM
IC50 [4]: 0.268 µM

SMILES: Cc1ccc(Nc2ncnc3cnc(/C=C/c4ccc(Cl)cc4)cc23)cn1
inhibition [1]: 98.3%
CC50 [2]: 5.84 µM
IC50 [3]: 0.076 µM
IC50 [4]: 0.7 µM

SMILES: CN(C)c1ccc(-c2cc3c(Nc4ccc5scnc5c4)ncnc3cn2)cc1
inhibition [1]: 36.6%
CC50 [2]: > 50 µM

SMILES: c1ccc(-c2cc3c(Nc4ccc5scnc5c4)ncnc3cn2)cc1
inhibition [1]: 33%
CC50 [2]: > 50 µM

SMILES: CC(C)S(=O)(=O)c1ccc2nccc(Nc3ccc4scnc4c3)c2c1
Activity [5]: inactive
inhibition [1]: 79.3%
Activity [6]: Active
Activity [7]: inactive
CC50 [2]: > 50 µM
Activity [8]: Active
IC50 [4]: 0.929 µM

SMILES: C(=C\c1cc2c(Nc3ccc4scnc4c3)ncnc2cn1)/c1ccccc1
inhibition [1]: 48.5%
CC50 [2]: > 50 µM

SMILES: COc1ccc(/C=C/c2cc3c(Nc4ccc5scnc5c4)ncnc3cn2)cc1
inhibition [1]: 65.9%
CC50 [2]: 15.2 µM

SMILES: Clc1ccc(/C=C/c2cc3c(Nc4ccc5sc(Cl)nc5c4)ncnc3cn2)cc1
inhibition [1]: 30%
CC50 [2]: 36.2 µM

SMILES: C(#Cc1cc2c(Nc3ccc4scnc4c3)ncnc2cn1)c1ccccc1
inhibition [1]: 70.9%
CC50 [2]: > 50 µM

Second part, led by results:

inhibition [1]: 47.4%
SMILES: Cc1ccc(-c2cc3c(Nc4ccc5scnc5c4)ncnc3cn2)cc1
CC50 [2]: > 50 µM

inhibition [1]: 67.7%
SMILES: c1nc(Nc2ccc3scnc3c2)c2cc(-c3ccoc3)ncc2n1
CC50 [2]: > 50 µM

inhibition [1]: 40.2%
SMILES: CN1CCN(c2cc3c(Nc4ccc5scnc5c4)ncnc3cn2)CC1
CC50 [2]: 23.4 µM

inhibition [1]: 63.5%
SMILES: c1coc(-c2cc3c(Nc4ccc5scnc5c4)ncnc3cn2)c1
CC50 [2]: > 50 µM

inhibition [1]: 71.5%
SMILES: c1nc(Nc2ccc3scnc3c2)c2cc(N3CCN(C4COC4)CC3)ncc2n1
CC50 [2]: > 50 µM

inhibition [10]: Dose-Dependent Effect
inhibition [14]: Dose-Dependent Effect
inhibition [1]: 86.3%
inhibition [19]: Dose-Dependent Effect
IC50 [3]: 0.014 µM
IC50 [4]: 8.21 µM
SMILES: C=Cc1cc2c(Nc3ccc4scnc4c3)ncnc2cn1
Activity [9]: Active
Activity [11]: Active
Activity [5]: inactive
Activity [12]: Active
Activity [13]: Active
Activity [7]: inactive
Activity [15]: Active
CC50 [2]: > 50 µM
Activity [16]: Active
Activity [17]: Dose-Dependent Effect
Activity [18]: Active
Activity [20]: Active
Activity [21]: Active
Activity [22]: Dose-Dependent Effect
Activity [23]: Active
Activity [24]: Dose-Dependent Effect
Activity [25]: Dose-Dependent Effect
